Results reported in US9409866B2, “Pyridine-2-amides useful as CB2 agonists” (Hoffmann-La Roche Inc., priority 2012, dated 2016).
Like-named read-outs stand apart in the source and are kept apart here.

Columns and labels:
[1] = target: human CB2 receptors (Homo sapiens (Human), UniProt P34972); test: functional cAMP assay, CHO cells expressing human CB2; type: cell-based
In short: (§1)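 CHO-hCB1/hCB2 cells, KRB + 1 mM IBMX preincubation 30 min 30 °C; cpd 30 min 30 °C; lysis + TR-FRET cAMP detection, 2 h RT; cAMP from std curve; EC50.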

[2] = target: human CB1 receptors (Homo sapiens (Human), UniProt P21554); test: functional cAMP assay, CHO cells expressing human CB1; type: cell-based
Sequence of human CB1 receptors (P21554 whole entry): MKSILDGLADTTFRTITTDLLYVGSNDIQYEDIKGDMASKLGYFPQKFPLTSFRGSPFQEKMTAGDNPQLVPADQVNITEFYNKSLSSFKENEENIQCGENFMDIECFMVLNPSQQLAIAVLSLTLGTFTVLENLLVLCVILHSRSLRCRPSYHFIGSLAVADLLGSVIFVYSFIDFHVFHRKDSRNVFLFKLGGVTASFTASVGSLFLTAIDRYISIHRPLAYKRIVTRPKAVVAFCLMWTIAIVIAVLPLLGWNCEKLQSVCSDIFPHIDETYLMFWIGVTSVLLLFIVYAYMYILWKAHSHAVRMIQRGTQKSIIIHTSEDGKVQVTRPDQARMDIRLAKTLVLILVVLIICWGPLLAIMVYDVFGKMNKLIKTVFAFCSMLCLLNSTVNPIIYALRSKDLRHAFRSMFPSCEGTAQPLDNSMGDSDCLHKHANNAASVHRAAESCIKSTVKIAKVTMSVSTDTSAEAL
In short: as §1

[3] = read-out: Human CB1 EC50; functional cAMP assay, CHO cells expressing human CB1

Sequence of human CB2 receptors (P34972 whole entry): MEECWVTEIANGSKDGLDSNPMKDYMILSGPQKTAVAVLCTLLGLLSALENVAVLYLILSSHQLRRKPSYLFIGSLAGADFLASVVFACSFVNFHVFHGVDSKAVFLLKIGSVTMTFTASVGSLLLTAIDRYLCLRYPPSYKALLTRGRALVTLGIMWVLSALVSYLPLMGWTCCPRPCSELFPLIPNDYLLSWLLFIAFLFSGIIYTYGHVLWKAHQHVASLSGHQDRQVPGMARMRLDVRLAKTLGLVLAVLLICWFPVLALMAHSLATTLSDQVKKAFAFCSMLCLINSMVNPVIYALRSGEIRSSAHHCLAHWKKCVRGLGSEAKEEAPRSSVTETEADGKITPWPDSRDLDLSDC

SMILES	EC50 ([1]; read-out: Human CB2 EC50)	EC50 ([2]; functional cAMP assay, CHO cells expressing human CB1; read-out: Human CB1 EC50)	EC50 ([1]; Human CB2 EC50 (uM))	EC50 [2, 3]
CC(C)(C)C(NC(=O)c1cc(OCC2CC2)c(N2CC(F)(F)C2)cn1)C(N)=O (stereo not drawn) [Example 257, N-(1-amino-3,3-dimethyl-1-oxobutan-2-yl)-4-(cyclopropylmethoxy)-5-(3,3-difluoroazetidin-1-yl)pyridine-2-carboxamide]	0.003 µM	> 10000 nM		
Cn1nnc(C(NC(=O)c2cc(OCC(F)(F)F)c(C3CC3)cn2)C(C)(C)C)n1 (single isomer, unassigned) [Example 210, 5-cyclopropyl-N-[2,2-dimethyl-1-(2-methyltetrazol-5-yl)propyl]-4-(2,2,2-trifluoroethoxy)pyridine-2-carboxamide]			0.0042 µM	> 10000 nM
CNC(=O)C(C)(NC(=O)c1cc(OCC(F)(F)F)c(C2CC2)cn1)c1noc(C)n1 (single isomer, unassigned) [Example 188, 5-cyclopropyl-N-[1-(methylamino)-2-(5-methyl-1,2,4-oxadiazol-3-yl)-1-oxopropan-2-yl]-4-(2,2,2-trifluoroethoxy)pyridine-2-carboxamide]			0.0206 µM	> 10000 nM
